Test results taken from patent US4683229A, “6-halo-9-alkenyleneoxy-3-alkyl-2,3,4,5-tetrahydro-(1H-3)-benzazepines and their use as selective alpha-adrenergic receptor antagonists” (SmithKline Beckman Corporation, priority 1986, dated 1987).
pEC50: −log10 of the molar value. Entries after “also recorded” stand apart in the source; their conditions may differ. Read-outs that look alike come from different tables or passages of the source.

Columns and labels:
[1] = target: T1, alpha2 receptor (guinea pig left atrium) (Cavia porcellus, UniProt Q60474); test: Alpha2 activity in isolated, superfused guinea pig left atrium: antagonism of clonidine; type: cell-based; conditions: for alpha2 effects in guinea pig atrium (in words): up to the highest tested concentration
T1 construct: The left atrium is separated, dissected free of extraneous tissue; from tissue; host or cells: isolated left atrium of male guinea pig
T1 sequence (Q60474 1-464): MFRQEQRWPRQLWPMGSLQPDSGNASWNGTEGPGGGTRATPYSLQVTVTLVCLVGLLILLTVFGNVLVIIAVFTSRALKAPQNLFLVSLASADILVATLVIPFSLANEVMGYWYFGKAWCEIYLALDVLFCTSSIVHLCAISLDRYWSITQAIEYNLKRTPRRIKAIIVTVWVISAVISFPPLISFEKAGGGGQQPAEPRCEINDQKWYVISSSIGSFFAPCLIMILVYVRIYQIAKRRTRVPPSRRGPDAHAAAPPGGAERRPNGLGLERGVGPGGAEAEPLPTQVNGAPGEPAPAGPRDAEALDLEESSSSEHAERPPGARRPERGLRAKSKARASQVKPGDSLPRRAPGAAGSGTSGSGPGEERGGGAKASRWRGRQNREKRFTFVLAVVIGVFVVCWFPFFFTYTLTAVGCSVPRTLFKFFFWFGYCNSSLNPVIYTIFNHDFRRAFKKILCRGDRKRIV
Protocol: (§1) The receptor dissociation constant (KB) for the antagonist was determined using the relationship [formula] (Furchgott, R. F., Handbook of Experimental Pharmacology, eds. Eichler, et al., pp. 283-335 (Springer 1972)). The KB value obtained at each antagonist concentration was averaged to obtain a mean KB for each experiment.
One of the two systems employed to determine alpha2 activity of the compounds was the isolated, superfused guinea pig left atrium. Briefly, the heart is removed from a pentobarbital-anesthetized male guinea pig. The left atrium is separated, dissected free of extraneous tissue and mounted in a 2 ml superfusion chamber. The tissue is paced at 60 pulse/minute and the sympathetic nerves excited at 6 minute intervals by field stimulation. The response to nerve stimulation is measured as the difference in contractile force between the basal contraction and peak contraction following a nerve stimulation. A concentration-response curve for clonidine (a known alpha2 […]) is prepared by administering increasing concentrations of clonidine following each successive stimulation. The tissue then is superfused for thirty minutes with the alpha-adrenoceptor antagonist to be tested and the clonidine concentration-effect curve is repeated in the presence of antagonist. Data are reported as KB, defined above. Additional details of this test system are found in Hieble, J. P. and R. G. Pendleton, Arch. Pharmacol., 309:217-224 (1979).
(§2) The results are expressed in nanomolar concentrations. Compound (D) is the prior art compound mentioned above; compounds (E) and (F) are compounds of the present invention.

[2] = tested on: alpha3 receptor (dog saphenous vein); test: Alpha3 activity in dog saphenous vein: shift of BHT-920 dose-response curve; type: cell-based; conditions: for antagonism in the alpha3 test system (in words) / Kb: dog saphenous vein; for separation in the concentrations producing alpha2 and alpha3 effects: guinea pig vas deferens (alpha2) vs dog saphenous vein (alpha3); for Kb: read-out: KB alpha3 DSV, BHT-920 agonist
Protocol: as §1
The dog saphenous vein (DSV) was used as the test system for measuring activity of the compounds at the alpha3 receptor. This test system has been shown a suitable preparation in which to characterize postsynaptic alpha2 (alpha3) adrenoceptors. Sullivan, A. T. and G. M. Drew, Arch. Pharmacol. 314:249-58 (1980). This test system is prepared by removing the lateral saphenous vein from an anesthetized dog and cutting the vein into segments of 10 mm in length. Each segment then is cut into a helical strip and mounted, in a tissue bath, between a stationary tissue holder and transducer with which isometric contractions are recorded as changes in grams of tension. Additional details of this methodology are found in Fowler, P. J., et al., J. Pharmacol. Exp. Ther. 229:712-18 (1984).
The alpha3 activity of the compounds of interest is determined by measuring shifts in the dose-response curve of a specific agonist induced by the tested compounds. The alpha2 specific agonist, BHT-920, was used in testing the compounds listed in Table I. Data are reported as KB, defined above.
as §2

[3] = Mean arterial blood pressure and heart rate in spontaneously hypertensive rats; type: in vivo; conditions: 1.5 mg/kg intravenously
Protocol: Further, spontaneously hypertensive rats were dosed, intravenously, at a dose of 1.5 mg/kg, with a solution of one of the compounds of the invention (Compound E, Table I) and mean arterial blood pressure was monitored for 45 minutes using indwelling cannulae positioned in the tail arteries. At the end of the 15 minute infusion, systolic and diasystolic pressures had reached their nadirs and were each approximately 30 to 35 mm Hg below vehicle-treated controls. Thirty minutes following cessation of the infusion, systolic and diasystolic pressures remained approximately 20 mm Hg less than the controls. Also, heart rate was measured during the period blood pressure was monitored.

[4] = target: T2, alpha2 receptor (guinea pig vas deferens) (Cavia porcellus, UniProt Q60474); test: Alpha2 activity in isolated, superfused guinea pig vas deferens: stimulated/basal 3H-norepinephrine release; type: cell-based; conditions: for alpha2 effects in guinea pig vas deferens (in words): up to the highest tested concentration
T2 construct: both vasa deferentia were removed and placed in a dish; from tissue; host or cells: isolated vas deferens of male guinea pigs
T2 sequence (Q60474 1-464): T1 sequence (Q60474 1-464)
Text: The second system utilized in determining the alpha2 activity of the compounds of interest is the isolated, superfused guinea pig vas deferens (Vas Def). From male (300-600 g) guinea pigs sacrificed by administration of a lethal amount of pentobarbital, both vasa deferentia were removed and placed in a dish containing a cold nutrient-buffer solution. The tissue was cleaned and the fibrous sheath removed gently. The ends were trimmed to yield segments about 4 cm in length and 4-0 silk ties attached to each end. The vasa deferentia then were incubated in 10 ml of nutrient-buffer solution containing […] of ^3 H-norepinephrine. Tissue was incubated at 37° C. for 30 minutes with continuous gassing with 95% O2, 5% CO2. After incubation, the tissue was mounted in a superfusion apparatus constructed of 3 mm ID glass tubing. One end was connected, via the silk tie, to a plug constructed of silicone rubber and polyethylene with a platinum wire hook. The other tie was connected to a force-displacement transducer. About 1 g of tension was applied to the tissue, and superfusion with nutrient-buffer solution initiated at 2 ml/minute, using a peristaltic pump. The chambers had platinum electrodes fused through the glass at the top and bottom to allow field stimulation of the tissue.
Before compound testing, tissues were equilibrated for at least 2 hours, during which time stimulation (3 Hz, 0.7 msec pulse duration, 80 V) was applied for 2 minutes at 30 minute intervals. Following this equilibration period, three control stimulations were performed. For each stimulation, two effluent samples were collected directly into 20 ml scintillation vials; one prior to, and one during field stimulation. The basal sample was collected during a 2 minute interval immediately prior to stimulation. The stimulation sample was collected beginning 30 seconds after initiation of stimulation, and continuing for 30 seconds following termination of the field stimulation. This lag period is to allow for the dead space in the superfusion chamber. This collection-stimulation procedure was repeated at 20 minute intervals. Following the third control collection, compound was added into the superfusion flow; 20 minutes later the collection-stimulation was repeated in the presence of compound. Compound concentration was increased ten-fold following each stimulation, and the cycle repeated until four drug concentrations had been tested. A final stimulation-collection was performed after termination of compound superfusion.
Ten ml of standard scintillation fluid (Aquasol-II) was added to all samples, and the DPM values were determined on a beta-scintillation counter. The stimulated/basal release ratio was determined for each pair. The stimulated/basal ratios for the three initial control collections were averaged to obtain a mean control ratio. The compound effect was determined by comparing the stimulated/basal ratio in the presence of increasing compound concentration to the mean control ratio. The EC50 was defined as the compound concentration producing a 50% increase in the stimulated/basal release ratio.
as §2

[5] = tested on: alpha1 adrenoceptor (rabbit aorta); test: Alpha1 activity in rabbit aorta segments: antagonism of norepinephrine contraction; type: cell-based; conditions: for Kb: read-out: KB alpha1 Aorta, norepinephrine agonist
Protocol: Alpha1 activity was determined using the rabbit aorta. Male New Zealand White rabbits (2-4 Kg) were euthanized by cervical concussion. A 4 cm portion of the thoracic aorta was removed and placed in a dish of cold (10° C.) Krebs-Hensleit solution. The tissue was cleaned of fat and connective tissue and cut into segments of approximately 3 mm in length. These segments were suspended in 10 ml tissue baths via hangers constructed of 0.25 mm tungsten wire. One hanger was fixed to a support in the bath, the other attached via silk thread to a force-displacement transducer.
Tissue segments were equilibrated for 2 hours prior to drug testing, during which time basal tension was maintained at 2 gm. Tissues were washed at 30 minute intervals during this equilibration period. The Krebs-Hensleit solution contained cocaine (6 μM) to block neuronal uptake and propranolol (1 μM) to block beta-adrenoceptors. Tissues were usually challenged once with norepinephrine (0.1 μM) during the equilbration period to check for viability.
A cumulative concentration-response curve to norepinephrine was obtained in each aortic segment. Following washout of norepinephrine, the alpha adrenoceptor antagonist to be tested was added to the bath. After the tissue had been in contact with the antagonist for 30-60 minutes, the norepinephrine concentration response-curve was repeated in the presence of antagonist. The tissue was then washed again, and a tenfold higher concentration of antagonist added. Following equilibration (30-60 minutes), a third norepinephrine concentration-response curve was determined in the presence of the antagonist.
as §1, §2

[6] = thirty minutes following cessation of the infusion

| Compound | Kb [1] [µM] | alpha2 effects in guinea pig atrium (in words) [1] | antagonism in the alpha3 test system (in words) [2] | separation in the concentrations producing alpha2 and alpha3 effects [2] | Kb [2] [µM] | reflex tachycardia (heart rate) ([3]; heart rate measured during blood pressure monitoring) | diastolic pressure less than controls, after infusion [3, 6] | systolic pressure less than controls, after infusion [3, 6] | pEC50 [4] | alpha2 effects in guinea pig vas deferens (in words) [4] | alpha1 activity compared among compounds D, E and F (in words) [5] | Kb [5] [µM] | Kb ([1]; guinea pig left atrium, clonidine, read-out: KB alpha2 Atrium) [µM] | pEC50 ([4]; guinea pig vas deferens, concentration producing a 50% increase in the stimulated/basal release ratio, read-out: EC50 alpha2 Vas Def) | alpha3 adrenoceptor selectivity vis-a-vis alpha2 (in words) ([2]; alpha3 vs alpha2, hydrochloride) |
| --- | --- | --- | --- | --- | --- | --- | --- | --- | --- | --- | --- | --- | --- | --- | --- |
| CC(C)=CCOc1ccc(Cl)c2c1CCN(C)CC2 [Compound E, 9-(3-methyl-2-butenyloxy)-6-chloro-3-methyl-2,3,4,5-tetrahydro-1H-3-benzazepine] | > 10 | no alpha2 effects | potent antagonists | ≥ 200 fold | 0.037 | No statistically significant reflex tachycardia | approximately 20 mm Hg | approximately 20 mm Hg | < 5.00 | no alpha2 effects | similar | 0.15 |  |  |  |
| CC=COc1ccc(Cl)c2c1CCN(C)CC2 [F, 9-(1-propenyloxy)-6-chloro-3-methyl-2,3,4,5-tetrahydro-1H-3-benzazepine] |  | no alpha2 effects | potent antagonists |  | 0.1 to 0.2 |  |  |  |  | no alpha2 effects | similar | 0.031 | > 1 | < 5.00 |  |
| C=CCOc1ccc(Cl)c2c1CCN(C)CC2.Cl [D, 9-allyloxy-6-chloro-3-methyl-2,3,4,5-tetrahydro-1H-3-benzazepine hydrochloride, reference compound] | 0.903 | significant activity at the alpha2 receptor |  | four | 0.054 |  |  |  | 6.65 | significant activity at the alpha2 receptor | similar | 0.15 |  |  | does not approach the high degree of specificity exhibited by the presently invented compounds; also recorded: insignificant alpha3 -adrenoceptor selectivity |
